Values joined by “and” are separate entries in the source; they are usually repeats but may differ in a detail not shown here. Equal values may be shown once.
target: T1, soluble guanylate cyclase (human GUCYA3/GUCYB3) overexpressed in CHO cells (Homo sapiens, UniProt Q02108+Q02153); assay: CHO cellular assay (cGMP production, HTRF); format: cell-based; conditions: CHO K1 clone 8E10 overexpressing human sGC, Cisbio HTRF, 1 h room temperature, 1 mM IBMX, 20 uM ODQ, minimum quantification limit 0.5 nM
T1 construct: expressed in transfected cells
T1 sequence (Q02108 1-690 partner): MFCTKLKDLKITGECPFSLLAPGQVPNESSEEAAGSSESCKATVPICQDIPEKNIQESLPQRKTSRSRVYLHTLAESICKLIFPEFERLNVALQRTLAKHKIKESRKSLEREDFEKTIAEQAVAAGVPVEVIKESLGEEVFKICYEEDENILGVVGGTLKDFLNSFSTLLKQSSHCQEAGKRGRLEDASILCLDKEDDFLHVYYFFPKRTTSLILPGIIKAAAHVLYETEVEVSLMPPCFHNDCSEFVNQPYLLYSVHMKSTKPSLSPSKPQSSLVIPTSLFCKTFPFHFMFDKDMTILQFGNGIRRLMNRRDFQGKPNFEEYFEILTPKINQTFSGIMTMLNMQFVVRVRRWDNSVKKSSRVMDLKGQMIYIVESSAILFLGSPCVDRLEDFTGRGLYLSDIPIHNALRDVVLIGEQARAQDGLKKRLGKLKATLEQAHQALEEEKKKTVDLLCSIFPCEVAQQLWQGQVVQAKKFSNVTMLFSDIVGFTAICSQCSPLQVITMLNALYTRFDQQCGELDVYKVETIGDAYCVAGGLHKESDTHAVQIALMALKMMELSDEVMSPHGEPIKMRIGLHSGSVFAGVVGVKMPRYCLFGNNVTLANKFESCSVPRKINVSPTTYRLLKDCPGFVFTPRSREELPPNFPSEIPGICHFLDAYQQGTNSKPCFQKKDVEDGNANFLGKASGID
T1 sequence (Q02153 1-619): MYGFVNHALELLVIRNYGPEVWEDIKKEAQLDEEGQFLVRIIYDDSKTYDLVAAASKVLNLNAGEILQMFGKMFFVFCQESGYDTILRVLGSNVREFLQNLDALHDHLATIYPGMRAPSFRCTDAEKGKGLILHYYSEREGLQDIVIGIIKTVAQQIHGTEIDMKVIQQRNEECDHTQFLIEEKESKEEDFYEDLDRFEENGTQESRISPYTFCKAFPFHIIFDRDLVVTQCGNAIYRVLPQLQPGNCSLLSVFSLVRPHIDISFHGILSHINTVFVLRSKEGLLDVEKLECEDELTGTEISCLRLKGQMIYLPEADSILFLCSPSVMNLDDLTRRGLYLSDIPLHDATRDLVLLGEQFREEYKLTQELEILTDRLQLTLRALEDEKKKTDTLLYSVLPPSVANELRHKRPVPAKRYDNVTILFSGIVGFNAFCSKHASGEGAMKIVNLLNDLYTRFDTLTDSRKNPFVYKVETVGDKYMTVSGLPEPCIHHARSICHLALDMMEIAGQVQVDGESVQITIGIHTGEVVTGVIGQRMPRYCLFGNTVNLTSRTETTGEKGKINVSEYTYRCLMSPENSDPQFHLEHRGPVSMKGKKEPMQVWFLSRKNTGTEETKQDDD
Procedure, shortened: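 Stable CHO K1 clone expressing human GUCYA3/GUCYB3. Compounds applied 1 h at room temperature in HBSS, 0.1% BSA, 1 mM IBMX, 20 uM ODQ, 0.5% DMSO. cGMP measured by HTRF and interpolated from a standard curve; EC50 from 4-parameter sigmoidal fit.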

Row | Structure (SMILES) | EC50
1 | Cc1cc(C2CCN(C(=O)C3CC(O)C3)CC2)ccc1OCc1ccsc1-c1cccc(-n2ncc(C(=O)O)c2C(F)(F)F)n1 (stereo not shown) [Example 12-5, 1-(6-(3-((4-(1-(3-Hydroxycyclobutanecarbonyl)piperidin-4-yl)-2-methylphenoxy)methyl)thiophen-2-yl)pyridin-2-yl)-5-(trifluoromethyl)-1H-pyrazole-4-carboxylic acid] | 46 nM
2 | Cc1cc(C2CCN(C(=O)C3COC3)CC2)ccc1OCc1ccsc1-c1cccc(-n2ncc(C(=O)O)c2C(F)(F)F)n1 [Example 12-7, 1-(6-(3-((2-Methyl-4-(1-(oxetane-3-carbonyl)piperidin-4-yl)phenoxy)methyl)thiophen-2-yl)pyridin-2-yl)-5-(trifluoromethyl)-1H-pyrazole-4-carboxylic acid] | 7.5 nM
3 | CCc1cc(OCc2cc(C)sc2-c2cccc(-n3ncc(C(=O)O)c3C)n2)ccc1C1CCN(C(=O)CC2CC2)CC1 [Example 12-8, 1-(6-(3-((4-(1-(2-Cyclopropylacetyl)piperidin-4-yl)-3-ethylphenoxy)methyl)-5-methylthiophen-2-yl)pyridin-2-yl)-5-methyl-1H-pyrazole-4-carboxylic acid] | 4.4 nM and 1 nM
4 | CCc1cc(OCc2cc(C)sc2-c2cccc(-n3ncc(C(=O)O)c3C(F)(F)F)n2)ccc1C1CCN(C(=O)C(C)(C)CO)CC1 [Example 12-10, 1-(6-(3-((3-Ethyl-4-(1-(3-hydroxy-2,2-dimethylpropanoyl)piperidin-4-yl)phenoxy)methyl)-5-methylthiophen-2-yl)pyridin-2-yl)-5-(trifluoromethyl)-1H-pyrazole-4-carboxylic acid] | 33 nM
5 | CCc1cc(OCc2cc(C)sc2-c2cccc(-n3ncc(C(=O)O)c3C(F)(F)F)n2)ccc1C1CCN(C(=O)CO)CC1 [Example 12-11, 1-(6-(3-((3-Ethyl-4-(1-(2-hydroxyacetyl)piperidin-4-yl)phenoxy)methyl)-5-methylthiophen-2-yl)pyridin-2-yl)-5-(trifluoromethyl)-1H-pyrazole-4-carboxylic acid] | 36 nM
6 | Cc1cc(C2CCN(CC(F)(F)F)CC2)ccc1OCc1ccsc1-c1cccc(-n2ncc(C(=O)O)c2C(F)(F)F)n1 [Example 13, 1-(6-(3-((2-Methyl-4-(1-(2,2,2-trifluoroethyl)piperidin-4-yl)phenoxy)methyl)thiophen-2-yl)pyridin-2-yl)-5-(trifluoromethyl)-1H-pyrazole-4-carboxylic acid] | 1 nM
7 | O=C(O)c1cnn(-c2cccc(-c3sccc3COc3ccc(C4CCN(CC(F)(F)F)CC4)cc3)n2)c1C(F)(F)F [Example 14-1, 1-(6-(3-((4-(1-(2,2,2-Trifluoroethyl)piperidin-4-yl)phenoxy)methyl)thiophen-2-yl)pyridin-2-yl)-5-(trifluoromethyl)-1H-pyrazole-4-carboxylic acid] | 12 nM
8 | Cc1cc(C2CCN(CC3CC3)CC2)ccc1OCc1ccsc1-c1cccc(-n2ncc(C(=O)O)c2C(F)(F)F)n1 [Example 14-2, 1-(6-(3-((4-(1-(Cyclopropylmethyl)piperidin-4-yl)-2-methylphenoxy)methyl)thiophen-2-yl)pyridin-2-yl)-5-(trifluoromethyl)-1H-pyrazole-4-carboxylic acid] | 430 nM
9 | Cc1cc(C2CCN(C(=O)C3CC3)CC2)ccc1NCc1ccsc1-c1cccc(-n2ncc(C(=O)O)c2C)n1 [Example 15, 1-(6-(3-(((4-(1-(Cyclopropanecarbonyl)piperidin-4-yl)-2-methylphenyl)amino)methyl)thiophen-2-yl)pyridin-2-yl)-5-methyl-1H-pyrazole-4-carboxylic acid] | ≤ 0.5 nM
10 | Cc1cc(C2CCN(C(=O)C3CC3)CC2)ccc1NCc1ccsc1-c1cccc(-n2ncc(C(=O)O)c2C(F)(F)F)n1 [Example 16-1, 1-(6-(3-(((4-(1-(Cyclopropanecarbonyl)piperidin-4-yl)-2-methylphenyl)amino)methyl)thiophen-2-yl)pyridin-2-yl)-5-(trifluoromethyl)-1H-pyrazole-4-carboxylic acid] | 8.8 nM
11 | Cc1cc(CNc2ccc(C3CCN(C(=O)C4CC4)CC3)cc2C)c(-c2cccc(-n3ncc(C(=O)O)c3C)n2)s1 [Example 16-2, 1-(6-(3-(((4-(1-(Cyclopropanecarbonyl)piperidin-4-yl)-2-methylphenyl)amino)methyl)-5-methylthiophen-2-yl)pyridin-2-yl)-5-methyl-1H-pyrazole-4-carboxylic acid] | 1 nM
12 | Cc1cc(CNc2ccc(C3CCN(C(=O)C4CC4)CC3)cc2)c(-c2cccc(-n3ncc(C(=O)O)c3C)n2)s1 [Example 16-3, 1-(6-(3-(((4-(1-(Cyclopropanecarbonyl)piperidin-4-yl)phenyl)amino)methyl)-5-methylthiophen-2-yl)pyridin-2-yl)-5-methyl-1H-pyrazole-4-carboxylic acid] | ≤ 0.5 nM
13 | CCc1c(C)sc(-c2cccc(-n3ncc(C(=O)O)c3C(F)(F)F)n2)c1COc1ccc(C2CCN(C(=O)C3CC3)CC2)cc1C [Example 17, 1-(6-(3-((4-(1-(Cyclopropanecarbonyl)piperidin-4-yl)-2-methylphenoxy)methyl)-4-ethyl-5-methylthiophen-2-yl)pyridin-2-yl)-5-(trifluoromethyl)-1H-pyrazole-4-carboxylic acid] | 1 nM
14 | Cc1cc(C2CCN(C(=O)C3CC3)CC2)ccc1OCc1c(-c2cccc(-n3ncc(C(=O)O)c3C(F)(F)F)n2)sc(C)c1C(C)C [Example 18-1, 1-(6-(3-((4-(1-(Cyclopropanecarbonyl)piperidin-4-yl)-2-methylphenoxy)methyl)-4-isopropyl-5-methylthiophen-2-yl)pyridin-2-yl)-5-(trifluoromethyl)-1H-pyrazole-4-carboxylic acid] | 7 nM
15 | CCc1c(C(=O)O)cnn1-c1cccc(-c2sc(C)cc2COc2ccc(C3CCN(CC(F)(F)F)CC3)cc2C)n1 [Example 18-2, 5-Ethyl-1-(6-(5-methyl-3-((2-methyl-4-(1-(2,2,2-trifluoroethyl)piperidin-4-yl)phenoxy)methyl)thiophen-2-yl)pyridin-2-yl)-1H-pyrazole-4-carboxylic acid] | 2 nM
16 | CCc1c(C(=O)O)cnn1-c1cccc(-c2sc(C)c(C)c2COc2ccc(C3CCN(CC(F)(F)F)CC3)cc2C)n1 [Example 18-3, 1-(6-(4,5-Dimethyl-3-((2-methyl-4-(1-(2,2,2-trifluoroethyl)piperidin-4-yl)phenoxy)methyl)thiophen-2-yl)pyridin-2-yl)-5-ethyl-1H-pyrazole-4-carboxylic acid] | 2 nM
17 | CCc1csc(-c2cccc(-n3ncc(C(=O)O)c3C(F)(F)F)n2)c1COc1ccc(C2CCN(C(=O)C3CC3)CC2)cc1C [Example 18-4, 1-(6-(3-((4-(1-(Cyclopropanecarbonyl)piperidin-4-yl)-2-methylphenoxy)methyl)-4-ethylthiophen-2-yl)pyridin-2-yl)-5-(trifluoromethyl)-1H-pyrazole-4-carboxylic acid] | 5.9 nM
18 | Cc1cc(C2CCN(CC(F)(F)F)CC2)ccc1OCc1c(-c2cccc(-n3ncc(C(=O)O)c3C(F)(F)F)n2)sc(C)c1C [Example 18-5, 1-(6-(4,5-Dimethyl-3-((2-methyl-4-(1-(2,2,2-trifluoroethyl)piperidin-4-yl)phenoxy)methyl)thiophen-2-yl)pyridin-2-yl)-5-(trifluoromethyl)-1H-pyrazole-4-carboxylic acid] | 3.5 nM
19 | CCc1csc(-c2cccc(-n3ncc(C(=O)O)c3C(F)(F)F)n2)c1COc1ccc(C2CCN(CC(F)(F)F)CC2)cc1C [Example 18-6, 1-(6-(4-Ethyl-3-((2-methyl-4-(1-(2,2,2-trifluoroethyl)piperidin-4-yl)phenoxy)methyl)thiophen-2-yl)pyridin-2-yl)-5-(trifluoromethyl)-1H-pyrazole-4-carboxylic acid] | 18 nM
